The record followed here is US5405861A, “Triazole compounds and antifungal compositions thereof” (Takeda Chemical Industries, Co., Ltd., priority 1989, dated 1995).

Experiment [1] has as its system Aspergillus niger IFO 4066. Nature of the experiment: Antifungal activity, paper disc growth inhibition zone (Table 4). It is filed as cell-based. The note with it: IFO4066, 48 h, medium A, 28° C., 2 days, disc soaked in 1000 μg/ml solution in methanol, read-out: Inhibition zone diameter. As for the experimental part: (§1) The antifungal activities of the compounds (I) were evaluated by the following method: a sheet of filter paper disc (manufactured by Toyo Seisakusho, 8 mm in diameter) soaked in a 1000 μg/ml solution of a compound (I) in methanol was placed on an agar plate, which was incubated at 28° C. for 2 days, and the diameter of the growth inhibition zone around the filter paper disc was measured. The following culture media were used:
(§2) A: yeast nitrogen base agar medium

The test system of experiment [2] is Candida albicans IFO 0583. Described as above. It is filed as cell-based. As to conditions: IFO0583, 48 h, medium A, 28° C., 2 days, disc soaked in 1000 μg/ml solution in methanol, read-out: Inhibition zone diameter. On the procedure:
as §1, §2

Experiment [3] relates to Aspergillus fumigatus IFO 6344. Described as above. It is filed as cell-based. The note with it: IFO6344, 48 h, medium A, 28° C., 2 days, disc soaked in 1000 μg/ml solution in methanol, read-out: Inhibition zone diameter. As for the experimental part:
as §1, §2

For experiment [4], the system named is Penicillium chrysogenum IFO 4626. The experiment is described as above. It is filed as cell-based. The note with it: IFO4626, 48 h, medium A, 28° C., 2 days, disc soaked in 1000 μg/ml solution in methanol, read-out: Inhibition zone diameter. On the procedure:
as §1, §2

Experiment [5] relates to Candida albicans (Ca--O) IFO 0583. The description is as above. It is filed as cell-based. The note with it: IFO0583, 48 h, medium A, 28° C., 2 days, disc soaked in 1000 μg/ml solution in methanol, read-out: Inhibition zone diameter. On the procedure: as §1, §2
Experiment [6] deals with Trichophyton rubrum IFO 6467. The experiment is described as above. It counts as cell-based. The note with it: IFO6467, 48 h, medium C (Sabouraud agar), 28° C., 2 days, disc soaked in 1000 μg/ml solution in methanol, read-out: Inhibition zone diameter. On the procedure:
(§3) The antifungal activities of the compounds (I) were evaluated by the following method: a sheet of filter paper disc (manufactured by Toyo Seisakusho, 8 mm in diameter) soaked in a 1000 μg/ml solution of a compound (I) in methanol was placed on an agar plate, which was incubated at 28° C. for 2 days, and the diameter of the growth inhibition zone around the filter paper disc was measured.

For experiment [7], the system named is Trichophyton mentagrophytes IFO 7522. Described as above. As to conditions: IFO7522, 48 h, medium C (Sabouraud agar), 28° C., 2 days, disc soaked in 1000 μg/ml solution in methanol, read-out: Inhibition zone diameter. It counts as cell-based. On the procedure:
as §3

The subject of experiment [8] is Microsporum gypseum IFO 6075. The description is as above. It is filed as cell-based. The note with it: Nannizzia gypsea, IFO6075, 48 h; medium C (Sabouraud agar), 28° C., 2 days, disc soaked in 1000 μg/ml solution in methanol; read-out: Inhibition zone diameter. On the procedure: as §3
Experiment [9] deals with Candida albicans (IFO 0538). Nature of the experiment: Antifungal activity against Candida albicans, paper disc growth inhibition zone (Tables 5 and 6). It is filed as cell-based. As to conditions: 48 h, pH 7, B medium (yeast nitrogen base agar, pH 7.0), 28° C., 2 days incubation; read-out: Inhibition zone diameter. As for the experimental part: as §1, §2
B: yeast nitrogen base agar medium (pH 7.0)

Experiment [10] relates to Candida albicans. Nature of the experiment: Infection-preventing effect in experimental infection in mice, Method 1 (Table 7-1). It counts as in vivo, Crj:CDF1 mice. The note with it: Candida albicans, 168 h, given 0 and 2 hours after infection, survival 7 days after infection, total dose, read-out: ED50. As for the experimental part:
Method 1 (Table 7-1): To 5-week-old Crj:CDF1 mice the minimum lethal dose of Candida albicans was inoculated intravenously. The test drug was given twice 0 and 2 hours after infection. The effectiveness of the drug was expressed in ED50 values calculated by the Reed and Muench method from the survival rate 7 days after infection. The ED50 values were calculated based on the total dose given on the two occasions.

Experiment [11] relates to Candida albicans. Nature of the experiment: Infection-preventing effect in experimental infection in mice, Method 2 (Table 7-2). It counts as in vivo, Crj:CDF1 mice. As to conditions: po, 168 h, p.o., given just after infection, survival 7 days after infection. On the procedure: Method 2 (Table 7-2): To 5-week-old Crj:CDF1 mice the minimum lethal dose of Candida albicans was inoculated intravenously. The test drug was given just after infection. The effectiveness of the drug was expressed in ED50 values calculated by the Reed and Muench method from the survival rate 7 days after infection. The ED50 values were calculated based on the […].

Regarding `C[C@@H](Sc1nc2c(s1)CCC2)[C@](O)(Cn1cncn1)c1ccc(F)cc1F` (relative stereo) [Compound 12], the zone of inhibition at 1000 µg/mL in experiment [1] was found to be 20 mm; in experiment [2] it was 42 mm; in experiment [3] it was 38 mm; in experiment [4], 15 mm; in experiment [5], 41 mm; in experiment [6], 35 mm. Also, the zone of inhibition at 1000 µg/mL in experiment [7] is 32 mm; in experiment [8], 35 mm; in experiment [9] it was 25 mm. The ED50 in [10] (sc, s.c.) is 2.5 mg/kg.

Consider `C[C@@H](SCc1ccncc1)[C@](O)(Cn1cncn1)c1ccc(F)cc1F` (relative stereo) [Compound 15], for which the zone of inhibition at 1000 µg/mL came to 29 mm in experiment [1]; 34 mm in experiment [2]; 30 mm in experiment [3]; 23 mm in [4]; 32 mm in [5]; 60 mm in experiment [6]. Besides, the zone of inhibition at 1000 µg/mL was found to be 50 mm in [7], 45 mm in [8] and 25 mm in experiment [9]. The ED50 in [10] (sc, s.c.) was 2.5 mg/kg.

Regarding `Cc1nc(CS[C@H](C)[C@](O)(Cn2cncn2)c2ccc(F)cc2F)cs1` [Compound 107], the zone of inhibition at 1000 µg/mL in [9] is 33 mm. Moreover, the ED50 was 0.39 mg/kg in [11]; below 0.5 mg/kg in experiment [10] (po, p.o.); 0.71 mg/kg in [10] (sc, s.c.).

For `C[C@@H](SCc1nncn1C1CC1)[C@](O)(Cn1cncn1)c1ccc(F)cc1F` [Compound 114], in [9], the zone of inhibition at 1000 µg/mL worked out at 15 mm. The ED50 in experiment [11] is 0.4 mg/kg.

In general, ED50 refers to the dose that gives a 50% effect, or the effect in half of the subjects.
